Experiment: Super-saturation studies: in-vitro dissolution in different media (SGF, FaSSIF, FeSSIF, buffer pH 7)
Type: physicochemical
Settings: ~4 mg/ml = 100% release
From the text: The in-vitro dissolution of the HPMC-based solid dispersion 1B (Component 1B) and that of the enteric HPMC-P based solid dispersion 2D (Component 2D) were studied in different media and compared to the crystalline-hemihydrate or the amorphous compound A.

Row | SMILES | Concentration of Compound A (FaSSIF, 10 min) | Concentration of Compound A (FaSSIF, 30 min) | Concentration of Compound A (FaSSIF, 60 min) | Concentration of Compound A (FaSSIF, 180 min) | Concentration of Compound A (FeSSIF, 10 min) | Concentration of Compound A (FeSSIF, 30 min) | Concentration of Compound A (FeSSIF, 60 min) | Concentration of Compound A (FeSSIF, 180 min) | Concentration of Compound A (SGF, 10 min) | Concentration of Compound A (SGF, 30 min) | Concentration of Compound A (SGF, 60 min) | Concentration of Compound A (SGF, 180 min)
1 | CN(C(=O)c1cc(C(F)(F)F)cc(C(F)(F)F)c1)[C@@H](/C=C/C(=O)N[C@@H]1CCCCNC1=O)Cc1ccc(Cl)c(Cl)c1 [A-amorphous, (4R)-4-[N′-methyl-N′-(3,5-bistrifluoromethyl-benzoyl)-amino]-4-(3,4-dichlorobenzyl)-but-2-enoic acid N—[(R)-epsilon-caprolactam-3-yl]-amide] | 102 µg/mL | 63 µg/mL | 9 µg/mL | 0 µg/mL | 531 µg/mL | 575 µg/mL | 48 µg/mL | 49 µg/mL | 491 µg/mL | 0 µg/mL | 0 µg/mL | 0 µg/mL
2 | CN(C(=O)c1cc(C(F)(F)F)cc(C(F)(F)F)c1)[C@@H](/C=C/C(=O)N[C@@H]1CCCCNC1=O)Cc1ccc(Cl)c(Cl)c1 [Compd A crystalline (hemihydrate), (4R)-4-[N′-methyl-N′-(3,5-bistrifluoro-methyl-benzoyl)-amino]-4-(3,4-dichlorobenzyl)-but-2-enoic acid N—[(R)-epsilon-caprolactam-3-yl]-amide semihydrate] | 0 µg/mL | 0 µg/mL | 0 µg/mL | 0 µg/mL | 62 µg/mL | 54 µg/mL | 56 µg/mL | 44 µg/mL | 0 µg/mL | 0 µg/mL | 0 µg/mL | 0 µg/mL

— patent publication US20100015225A1, “SOLID DISPERSION OF A NEUROKININ ANTAGONIST” (priority 2006, published 2010)
